Results as given in publication PMC6102311 (Scientific Reports, 2018).

Experiments:
[1] = system: Ralstonia solanacearum; settings: extracted from Chinese agarwood; cited from earlier work
[2] = system: Epstein-Barr virus-early antigen (EBV-EA) activation in Raji cells by TPA; assay: Inhibitory effects on induction of EBV-EA activation by TPA in Raji cells; assay type: cell-based
Description: (§1) We finally carried out in vitro functional analysis of the purified valerianol against tumor promoter activity, since there were no reports on its physiological functions. As such a screening study for anti-tumor promoters, valerianol and other several sesquiterpenes, β-eudesmol, elemol, α-selinene, and γ-amorphene, were examined for their inhibitory effects on induction of Epstein-Barr virus-early antigen (EBV-EA) activation in Raji cells by 12-O-tetradecanoylphorbol-13-acetate (TPA)[42].
(§2) This assay was carried out by the method described.

[3] = Viability of Raji cells in the EBV-EA activation assay; assay type: cell-based; settings: human, Raji cells; concentration 1000 mol ratio to TPA (32 pmol/ml); value in parentheses; read-out: viability percentage of Raji cells
Description: as §1, §2

[4] = system: Staphylococcus aureus; parameters: method as in PMID 26927047; settings: extracted from Chinese agarwood; cited from earlier work
[5] = system: Raji cells; assay: Viability of Raji cells in the EBV-EA activation assay; assay type: cell-based; settings: concentration 1000 mol ratio to TPA (32 pmol/ml); value in parentheses
Description: as §1, §2

[6] = concentration 10 mol ratio to TPA (32 pmol/ml)
[7] = concentration 100 mol ratio to TPA (32 pmol/ml)
[8] = concentration 500 mol ratio to TPA (32 pmol/ml)
[9] = concentration 1000 mol ratio to TPA (32 pmol/ml)

Compound	antibacterial activity against Ralstonia solanacearum (in words) [1]	inhibitory activity on induction of EBV-EA activation by TPA (in words) [2]	EBV-EA activation, percentage relative to the positive control value (100%) [2, 6] [%]	EBV-EA activation, percentage relative to the positive control value (100%) [2, 7] [%]	EBV-EA activation, percentage relative to the positive control value (100%) [2, 8] [%]	EBV-EA activation, percentage relative to the positive control value (100%) [2, 9] [%]	viability at 32 nmol/ml [3] [%]	antibacterial activity against Staphylococcus aureus (in words) [4]	viability percentage of Raji cells [5] [%]
C[C@@H]1CCC=C2CC[C@@H](C(C)(C)O)C[C@]21C (relative stereo) [valerianol]	exhibited antibacterial activities	strongest inhibitory activity among the examined sesquiterpenes	95.6 ± 0.6	70.0 ± 2.5	46.5 ± 1.5	2.1	60	exhibited antibacterial activities	
C=C1CCC[C@]2(C)CC[C@@H](C(C)(C)O)C[C@@H]12 [β-eudesmol]			97.0 ± 0.5	71.1 ± 2.2	50.4 ± 1.6	3.6	60		
C=CC1(C)CCC(C(C)(C)O)CC1C(=C)C (stereo not drawn) [elemol]			100 ± 0.5	73.0 ± 2.4	52.6 ± 1.3	5.8	70		
C=C1CC[C@@H](C(C)C)[C@H]2C=C(C)CC[C@@H]12 [γ-amorphene]			100 ± 0.4	76.1 ± 2.5	55.6 ± 1.7	8.1			60
C=C(C)[C@@H]1CC[C@@]2(C)CCC=C(C)[C@@H]2C1 [α-selinene]				74.4 ± 2.7	54.2 ± 1.5	7.3			60
